# Molecular target: T1, human apelin receptor (Homo sapiens, UniProt P35414)
# T1 construct: host or cells: CHO cells
# T1 sequence (P35414 1-380): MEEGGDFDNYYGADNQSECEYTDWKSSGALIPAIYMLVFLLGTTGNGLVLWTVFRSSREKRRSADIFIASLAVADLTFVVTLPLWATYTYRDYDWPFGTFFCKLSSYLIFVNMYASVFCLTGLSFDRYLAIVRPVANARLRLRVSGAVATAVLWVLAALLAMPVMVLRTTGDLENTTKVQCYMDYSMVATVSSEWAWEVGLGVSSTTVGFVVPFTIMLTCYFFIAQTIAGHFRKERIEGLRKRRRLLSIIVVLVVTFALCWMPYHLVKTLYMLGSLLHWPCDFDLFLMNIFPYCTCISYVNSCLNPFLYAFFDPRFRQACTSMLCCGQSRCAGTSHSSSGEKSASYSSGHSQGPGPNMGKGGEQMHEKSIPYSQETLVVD
# Test: Measurement of apelin receptor agonist activity (cell-based assay determining the amount of intracellular cAMP)
# Settings: CHO cells stably expressing the human apelin receptor, Forskolin 10 μM, 30 minutes, 100% efficacy = [Pyr1]-apelin-13 0.300 μM, concentration giving 50% efficacy
# Method in brief: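 CHO cells stably expressing the receptor were treated for 30 min with compound ([…], 3-fold, 11 points; 0.3% DMSO) together with 10 μM forskolin. cAMP was measured by chemiluminescent lysate assay. Efficacy was scaled from forskolin alone (0%) to 0.300 μM [Pyr1]-apelin-13 plus forskolin (100%), and dose-response curves were fitted.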
row,Compound,EC50 [nM]
1,"COc1cccc(OC)c1-n1c(/C=C/C(=O)N2C[C@H](O)C[C@H]2C(=O)O)nnc1-c1ccc(C)o1 [Example 92, (4R)-1-{(2E)-3-[4-(2,6-Dimethoxyphenyl)-5-(5-methylfuran-2-yl)-4H-1,2,4-triazol-3-yl]prop-2-enoyl}-4-hydroxy-L-proline]",166
2,"COc1cccc(OC)c1-n1c(/C=C/C(=O)N2CCC[C@H]2C(=O)O)nnc1-c1ccc(C)o1 [Example 93, 1-{(2E)-3-[4-(2,6-Dimethoxyphenyl)-5-(5-methylfuran-2-yl)-4H-1,2,4-triazol-3-yl]prop-2-enoyl}-L-proline]",364
3,"COc1cccc(OC)c1-n1c(SCc2nc(=O)o[nH]2)nnc1-c1ccc(C)o1 [Example 94, 3-({[4-(2,6-Dimethoxyphenyl)-5-(5-methylfuran-2-yl)-4H-1,2,4-triazol-3-yl]sulfanyl}methyl)-1,2,4-oxadiazol-5(2H)-one]",71
4,"COc1cccc(OC)c1-n1c(CNC(=O)c2ccc(C)cc2)nnc1-c1ccc(C)o1 [Example 99, N-{[4-(2,6-Dimethoxyphenyl)-5-(5-methylfuran-2-yl)-4H-1,2,4-triazol-3-yl]methyl}-4-methylbenzamide]",338
5,"COc1cccc(OC)c1-n1c(SCc2n[nH]c(=O)o2)nnc1-c1ccc(C)o1 [Example 101, 5-({[4-(2,6-Dimethoxyphenyl)-5-(5-methylfuran-2-yl)-4H-1,2,4-triazol-3-yl]sulfanyl}methyl)-1,3,4-oxadiazol-2(3H)-one]",587
6,"COc1cccc(OC)c1-n1c(SCP(=O)(O)O)nnc1-c1ccc(C)o1 [Example 102, ({[4-(2,6-Dimethoxyphenyl)-5-(5-methylfuran-2-yl)-4H-1,2,4-triazol-3-yl]sulfanyl}methyl)phosphonic acid]",103
7,"COc1cccc(OC)c1-n1c(SCc2ccc(C(N)=O)cc2)nnc1-c1ccc(C)o1 [Example 105, 4-({[4-(2,6-Dimethoxyphenyl)-5-(5-methylfuran-2-yl)-4H-1,2,4-triazol-3-yl]sulfanyl}methyl)benzamide]",1200
8,"COc1cccc(OC)c1-n1c(SCc2cccc(C(N)=O)c2)nnc1-c1ccc(C)o1 [Example 106, 3-({[4-(2,6-Dimethoxyphenyl)-5-(5-methylfuran-2-yl)-4H-1,2,4-triazol-3-yl]sulfanyl}methyl)benzamide]",793
9,"COc1cccc(OC)c1-n1c(CNS(=O)(=O)c2ccc(C)cc2)nnc1-c1ccc(C)o1 [Example 107, N-{[4-(2,6-Dimethoxyphenyl)-5-(5-methylfuran-2-yl)-4H-1,2,4-triazol-3-yl]methyl}-4-methylbenzenesulfonamide]",668

# More lines, in order of falling EC50, values ahead:
row,EC50 [nM],Compound
1,1170,"COc1cccc(OC)c1-n1c(CNC(=O)C(=O)O)nnc1-c1ccc(C)o1 [Example 98, ({[4-(2,6-Dimethoxyphenyl)-5-(5-methylfuran-2-yl)-4H-1,2,4-triazol-3-yl]methyl}amino)(oxo)acetic acid]"
2,957,"COc1cccc(OC)c1-n1c(SCc2n[nH]c(=O)[nH]2)nnc1-c1ccc(C)o1 [Example 100, 5-({[4-(2,6-Dimethoxyphenyl)-5-(5-methylfuran-2-yl)-4H-1,2,4-triazol-3-yl]sulfanyl}methyl)-2,4-dihydro-3H-1,2,4-triazol-3-one]"
3,605,"COc1cccc(OC)c1-n1c(SCP(=O)(OC(C)C)OC(C)C)nnc1-c1ccc(C)o1 [Example 96, Dipropan-2-yl ({[4-(2,6-dimethoxyphenyl)-5-(5-methylfuran-2-yl)-4H-1,2,4-triazol-3-yl]sulfanyl}methyl)phosphonate]"
4,503,"COC(=O)[C@@H]1CCCN1C(=O)/C=C/c1nnc(-c2ccc(C)o2)n1-c1c(OC)cccc1OC [Example 90, Methyl 1-{(2E)-3-[4-(2,6-dimethoxyphenyl)-5-(5-methylfuran-2-yl)-4H-1,2,4-triazol-3-yl]prop-2-enoyl}-L-prolinate]"
5,351,"COC(=O)[C@@H]1C[C@@H](O)CN1C(=O)/C=C/c1nnc(-c2ccc(C)o2)n1-c1c(OC)cccc1OC [Example 91, Methyl (4R)-1-{(2E)-3-[4-(2,6-dimethoxyphenyl)-5-(5-methylfuran-2-yl)-4H-1,2,4-triazol-3-yl]prop-2-enoyl}-4-hydroxy-L-prolinate]"
6,273,"CCOC(=O)C(=O)NCc1nnc(-c2ccc(C)o2)n1-c1c(OC)cccc1OC [Example 97, Ethyl ({[4-(2,6-dimethoxyphenyl)-5-(5-methylfuran-2-yl)-4H-1,2,4-triazol-3-yl]methyl}amino)(oxo)acetate]"
7,48,"COc1cccc(OC)c1-n1c(SCc2cc(=O)[nH][nH]2)nnc1-c1ccc(C)o1 [Example 104, 5-({[4-(2,6-Dimethoxyphenyl)-5-(5-methylfuran-2-yl)-4H-1,2,4-triazol-3-yl]sulfanyl}methyl)-1,2-dihydro-3H-pyrazol-3-one]"
8,46,"COc1cccc(OC)c1-n1c(SCC2=NOC(=O)C2)nnc1-c1ccc(C)o1 [Example 103, 3-({[4-(2,6-Dimethoxyphenyl)-5-(5-methylfuran-2-yl)-4H-1,2,4-triazol-3-yl]sulfanyl}methyl)-1,2-oxazol-5(4H)-one]"
9,6,"COc1cccc(OC)c1-n1c(SCC(=O)NS(=O)(=O)c2ccccc2)nnc1-c1ccc(C)o1 [Example 95, 2-{[4-(2,6-Dimethoxyphenyl)-5-(5-methylfuran-2-yl)-4H-1,2,4-triazol-3-yl]sulfanyl}-N-(phenylsulfonyl)acetamide]"
